Like-named read-outs stand apart in the source and are kept apart here. Values belong to the compound of their own block, whether it stands above or below them.
Tests used:
[1] = target: human Smoothened receptor (Homo sapiens, UniProt Q99835); experiment: Smo binding assay, displacement of radio-labeled smoothened agonist, filter binding format (human); settings: displacement of small molecule agonist of Smoothened, read-out: Human Smo bdg., IC50
From the text: A Smo binding assay was developed using radio-labeled smoothened agonist for compound competition. Table 9 lists the IC50 for displacement of a small molecule agonist of Smoothened determined in a filter binding format for the mouse and human Smoothened receptor.

[2] = test system: Gli-luciferase activity; experiment: Reporter gene assay (RGA) in TMHh12 cells, antagonism of Gli-luciferase activity in the presence of a Smo agonist; format: cell-based
Experimental: Activity of the compounds was evaluated using a reporter gene assay (RGA) in TMHh12 cells.

[3] = target: mouse Smoothened receptor (Mus musculus, UniProt P56726); experiment: Smo binding assay, displacement of radio-labeled smoothened agonist, filter binding format (mouse); settings: displacement of small molecule agonist of Smoothened, read-out: Mouse Smo bdg., IC50
Sequence of mouse Smoothened receptor (P56726 33-793): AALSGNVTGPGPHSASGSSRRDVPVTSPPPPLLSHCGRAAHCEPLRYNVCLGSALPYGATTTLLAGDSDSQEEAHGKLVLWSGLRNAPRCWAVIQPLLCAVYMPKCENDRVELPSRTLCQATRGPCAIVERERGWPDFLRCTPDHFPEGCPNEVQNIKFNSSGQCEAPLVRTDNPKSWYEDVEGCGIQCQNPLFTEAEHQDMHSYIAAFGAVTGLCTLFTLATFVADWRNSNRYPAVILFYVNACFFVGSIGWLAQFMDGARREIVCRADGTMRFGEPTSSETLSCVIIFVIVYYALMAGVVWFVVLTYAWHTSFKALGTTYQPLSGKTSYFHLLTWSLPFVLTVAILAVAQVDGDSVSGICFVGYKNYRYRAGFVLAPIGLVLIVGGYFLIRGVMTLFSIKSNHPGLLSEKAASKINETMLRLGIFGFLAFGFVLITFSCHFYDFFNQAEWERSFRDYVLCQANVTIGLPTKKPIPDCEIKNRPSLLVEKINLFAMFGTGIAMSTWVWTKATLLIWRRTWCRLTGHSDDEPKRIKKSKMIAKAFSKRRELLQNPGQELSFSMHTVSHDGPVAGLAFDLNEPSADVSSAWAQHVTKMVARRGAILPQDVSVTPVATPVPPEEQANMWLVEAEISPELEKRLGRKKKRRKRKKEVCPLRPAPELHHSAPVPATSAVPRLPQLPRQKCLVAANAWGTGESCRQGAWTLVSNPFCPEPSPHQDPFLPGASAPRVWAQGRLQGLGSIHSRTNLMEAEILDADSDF
From the text: A Smo binding assay was developed using radio-labeled smoothened agonist for compound competition.

[4] = 25 nM small molecule Smo agonist, read-out: RGA (25 nM Smo agonist) IC50
[5] = read-out: RGA (1 nM Smo agonist) IC50, 1 nM small molecule Smo agonist

Sequence of human Smoothened receptor (Q99835 28-787): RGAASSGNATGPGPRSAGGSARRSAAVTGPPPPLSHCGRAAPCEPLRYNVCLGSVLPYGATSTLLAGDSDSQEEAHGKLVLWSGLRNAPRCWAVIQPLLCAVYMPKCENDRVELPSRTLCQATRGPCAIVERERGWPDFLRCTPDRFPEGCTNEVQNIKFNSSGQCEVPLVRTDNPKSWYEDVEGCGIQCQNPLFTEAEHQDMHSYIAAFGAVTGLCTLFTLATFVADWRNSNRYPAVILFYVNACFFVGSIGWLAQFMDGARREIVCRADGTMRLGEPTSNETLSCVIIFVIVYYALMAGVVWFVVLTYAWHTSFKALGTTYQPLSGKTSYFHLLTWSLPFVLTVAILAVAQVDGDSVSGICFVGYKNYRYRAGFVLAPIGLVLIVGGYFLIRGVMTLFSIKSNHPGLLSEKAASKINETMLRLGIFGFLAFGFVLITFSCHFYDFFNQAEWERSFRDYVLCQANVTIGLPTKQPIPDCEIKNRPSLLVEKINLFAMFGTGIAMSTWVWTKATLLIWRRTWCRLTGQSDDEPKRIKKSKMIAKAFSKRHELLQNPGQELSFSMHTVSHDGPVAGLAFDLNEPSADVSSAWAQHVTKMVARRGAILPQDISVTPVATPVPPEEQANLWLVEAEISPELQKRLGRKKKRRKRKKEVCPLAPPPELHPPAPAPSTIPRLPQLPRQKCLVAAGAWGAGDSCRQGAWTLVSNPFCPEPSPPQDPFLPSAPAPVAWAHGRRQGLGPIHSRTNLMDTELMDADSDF

SMILES: N#Cc1ccc(N2CCN(c3nnc(Cc4ccccc4)c4ccccc34)CC2)nc1 [Example 1, 6-[4-(4-Benzyl-phthalazin-1-yl)-piperazin-1-yl]-nicotinonitrile]
IC50 [1]: 100 to 1000 nM
IC50 [2, 4]: 1000 to 10000 nM
IC50 [2, 5]: < 100 nM
IC50 [3]: < 100 nM

SMILES: FC(F)(F)c1ccc(N2CCN(c3nnc(Cc4ccccc4)c4ccccc34)CC2)nc1 [Example 2]
IC50 [1]: < 100 nM
IC50 [2, 4]: 100 to 1000 nM
IC50 [2, 5]: < 100 nM
IC50 [3]: < 100 nM

SMILES: CCOC(=O)c1ccc(N2CCN(c3nnc(Cc4ccccc4)c4ccccc34)CC2)cc1 [Example 5]
IC50 [1]: < 100 nM
IC50 [2, 4]: 100 to 1000 nM
IC50 [2, 5]: < 100 nM
IC50 [3]: < 100 nM

SMILES: O=C(O)c1ccc(N2CCN(c3nnc(Cc4ccccc4)c4ccccc34)CC2)cc1 [Example 16]
IC50 [1]: 1000 to 10000 nM
IC50 [2, 4]: 1000 to 10000 nM
IC50 [2, 5]: 1000 to 10000 nM
IC50 [3]: 1000 to 10000 nM

SMILES: N#Cc1cnc(N2CCN(c3nnc(Cc4ccccc4)c4ccccc34)CC2)nc1 [Example 39, 2-[4-(4-Benzyl-phthalazin-1-yl)-piperazin-1-yl]-pyrimidine-5-carbonitrile]
IC50 [1]: 100 to 1000 nM
IC50 [2, 4]: 100 to 1000 nM
IC50 [2, 5]: < 100 nM
IC50 [3]: 100 to 1000 nM

SMILES: COc1cc(=O)[nH]c(N2CCN(c3nnc(Cc4ccccc4)c4ccccc34)CC2)n1 [Example 46]
IC50 [1]: 100 to 1000 nM
IC50 [2, 4]: 10000 to 40000 nM
IC50 [2, 5]: 1000 to 10000 nM
IC50 [3]: 100 to 1000 nM

SMILES: Cc1cc(C)nc(N2CCN(c3nnc(Cc4ccccc4)c4ccccc34)CC2)n1 [Example 48]
IC50 [1]: 100 to 1000 nM
IC50 [2, 4]: 1000 to 10000 nM
IC50 [2, 5]: < 100 nM
IC50 [3]: < 100 nM

SMILES: Fc1cc(Cl)cnc1N1CCN(c2nnc(Cc3ccccc3)c3ccccc23)CC1 [Example 49]
IC50 [1]: 100 to 1000 nM
IC50 [2, 4]: 100 to 1000 nM
IC50 [2, 5]: < 100 nM
IC50 [3]: 100 to 1000 nM

SMILES: FC(F)(F)c1ccnc(N2CCN(c3nnc(Cc4ccccc4)c4ccccc34)CC2)n1 [Example 50]
IC50 [1]: 100 to 1000 nM
IC50 [2, 4]: 100 to 1000 nM
IC50 [2, 5]: < 100 nM
IC50 [3]: 100 to 1000 nM

SMILES: Fc1cnc(F)c(N2CCN(c3nnc(Cc4ccccc4)c4ccccc34)CC2)c1 [Example 51]
IC50 [1]: 1000 to 10000 nM
IC50 [2, 4]: 1000 to 10000 nM
IC50 [2, 5]: 100 to 1000 nM
IC50 [3]: 1000 to 10000 nM

SMILES: Fc1cnc(N2CCN(c3nnc(Cc4ccccc4)c4ccccc34)CC2)c(F)c1 [Example 52]
IC50 [1]: 100 to 1000 nM
IC50 [2, 4]: 1000 to 10000 nM
IC50 [2, 5]: 100 to 1000 nM
IC50 [3]: 100 to 1000 nM

SMILES: NC(=O)c1ccc(N2CCN(c3nnc(Cc4ccccc4)c4ccccc34)CC2)nc1 [Example 53]
IC50 [1]: 100 to 1000 nM
IC50 [2, 4]: 100 to 1000 nM
IC50 [2, 5]: < 100 nM
IC50 [3]: 100 to 1000 nM

SMILES: CCOC(=O)c1ccc(N2CCN(c3nnc(Cc4ccccc4)c4ccccc34)CC2)nc1 [Example 54]
IC50 [1]: < 100 nM
IC50 [2, 4]: 100 to 1000 nM
IC50 [2, 5]: < 100 nM
IC50 [3]: < 100 nM

SMILES: COC(=O)c1cnc(N2CCN(c3nnc(Cc4ccccc4)c4ccccc34)CC2)nc1 [Example 140]
IC50 [2, 4]: 1000 to 10000 nM
IC50 [2, 5]: 1000 to 10000 nM
IC50 [3]: 100 to 1000 nM

SMILES: COC(=O)c1cnc(N2CCN(c3nnc(Cc4ccccc4)c4ccccc34)C[C@H]2C)cn1 [Example 145, (R)-4-(4-Benzyl-phthalazin-1-yl)-2-methyl-3,4,5,6-tetrahydro-2H-[1,2′]bipyrazinyl-5′-carboxylic acid methyl ester]
IC50 [1]: < 100 nM
IC50 [2, 4]: 100 to 1000 nM
IC50 [2, 5]: < 100 nM

SMILES: CC(=O)c1cnc(N2CCN(c3nnc(Cc4ccccc4)c4ccccc34)CC2)cn1 [Example 153]
IC50 [2, 4]: 100 to 1000 nM
IC50 [2, 5]: < 100 nM
IC50 [3]: < 100 nM

SMILES: OCc1ccc(N2CCN(c3nnc(Cc4ccccc4)c4ccccc34)CC2)nc1 [Example 158]
IC50 [2, 4]: 1000 to 10000 nM
IC50 [2, 5]: 100 to 1000 nM
IC50 [3]: 100 to 1000 nM

SMILES: CN(C)C(=O)c1ccc(N2CCN(c3nnc(Cc4ccc(F)cc4F)c4ccccc34)CC2)nc1 [Example 202]
IC50 [2, 4]: 100 to 1000 nM
IC50 [2, 5]: < 100 nM
IC50 [3]: < 100 nM

SMILES: CS(=O)(=O)NCc1ccc(N2CCN(c3nnc(Cc4ccccc4)c4ccccc34)CC2)nc1 [Example 205]
IC50 [2, 4]: 100 to 1000 nM
IC50 [2, 5]: 100 to 1000 nM
IC50 [3]: < 100 nM

SMILES: CNC(=O)NCc1ccc(N2CCN(c3nnc(Cc4ccccc4)c4ccccc34)CC2)nc1 [Example 206]
IC50 [2, 4]: 100 to 1000 nM
IC50 [2, 5]: < 100 nM
IC50 [3]: 100 to 1000 nM

SMILES: CC(=O)Nc1ccc(N2CCN(c3nnc(Cc4ccccc4)c4ccccc34)CC2)nc1 [Example 236]
IC50 [2, 4]: 100 to 1000 nM
IC50 [2, 5]: 100 to 1000 nM
IC50 [3]: 100 to 1000 nM

SMILES: CC(=O)Nc1cnc(N2CCN(c3nnc(Cc4ccccc4)c4ccccc34)CC2)nc1 [Example 237, N-{2-[4-(4-Benzyl-phthalazin-1-yl)-piperazin-1-yl]-pyrimidin-5-yl}-acetamide]
IC50 [2, 4]: 100 to 1000 nM
IC50 [2, 5]: 100 to 1000 nM
IC50 [3]: 100 to 1000 nM

Results, then the compound that gave them:

IC50 [1]: < 100 nM
IC50 [2, 4]: < 100 nM
IC50 [2, 5]: < 100 nM
IC50 [3]: < 100 nM
SMILES: CC(C)(O)c1ccc(N2CCN(c3nnc(Cc4ccccc4)c4ccccc34)CC2)nc1 [Example 54a, 2-{6-[4-(4-Benzyl-phthalazin-1-yl)-piperazin-1-yl]-pyridin-3-yl}-propan-2-ol]

IC50 [1]: 100 to 1000 nM
IC50 [2, 4]: 100 to 1000 nM
IC50 [2, 5]: < 100 nM
IC50 [3]: 100 to 1000 nM
SMILES: CN(C)C(=O)c1cnc(N2CCN(c3nnc(Cc4ccccc4)c4ccccc34)CC2)nc1 [Example 54aa]

IC50 [1]: 100 to 1000 nM
IC50 [2, 4]: 100 to 1000 nM
IC50 [2, 5]: < 100 nM
IC50 [3]: < 100 nM
SMILES: O=C(c1cnc(N2CCN(c3nnc(Cc4ccccc4)c4ccccc34)CC2)nc1)N1CCOCC1 [Example 54bb]

IC50 [1]: 100 to 1000 nM
IC50 [2, 4]: 100 to 1000 nM
IC50 [2, 5]: < 100 nM
IC50 [3]: 100 to 1000 nM
SMILES: CN(CCO)C(=O)c1cnc(N2CCN(c3nnc(Cc4ccccc4)c4ccccc34)CC2)nc1 [Example 54cc]

IC50 [1]: < 100 nM
IC50 [2, 4]: < 100 nM
IC50 [2, 5]: < 100 nM
IC50 [3]: < 100 nM
SMILES: CCN(CCO)C(=O)c1ccc(N2CCN(c3nnc(Cc4ccccc4)c4ccccc34)CC2)nc1 [Example 54d]

IC50 [1]: 1000 to 10000 nM
IC50 [2, 4]: 1000 to 10000 nM
IC50 [2, 5]: 100 to 1000 nM
IC50 [3]: 100 to 1000 nM
SMILES: CN1CCN(C(=O)c2ccc(N3CCN(c4nnc(Cc5ccccc5)c5ccccc45)CC3)nc2)CC1 [Example 54i]

IC50 [1]: 100 to 1000 nM
IC50 [2, 4]: 100 to 1000 nM
IC50 [2, 5]: < 100 nM
IC50 [3]: < 100 nM
SMILES: O=C(c1ccc(N2CCN(c3nnc(Cc4ccccc4)c4ccccc34)CC2)nc1)N1CCOCC1 [Example 54k]

IC50 [1]: 100 to 1000 nM
IC50 [2, 4]: 100 to 1000 nM
IC50 [2, 5]: < 100 nM
IC50 [3]: 100 to 1000 nM
SMILES: O=C(c1ccc(N2CCN(c3nnc(Cc4ccccc4)c4ccccc34)CC2)nc1)N1CC[S+]([O-])C1 (stereo not shown) [Example 54q]

IC50 [1]: 100 to 1000 nM
IC50 [2, 4]: 100 to 1000 nM
IC50 [2, 5]: 100 to 1000 nM
IC50 [3]: < 100 nM
SMILES: COC(=O)CNC(=O)c1ccc(N2CCN(c3nnc(Cc4ccccc4)c4ccccc34)CC2)nc1 [Example 54r]

IC50 [1]: 100 to 1000 nM
IC50 [2, 4]: 100 to 1000 nM
IC50 [2, 5]: < 100 nM
IC50 [3]: < 100 nM
SMILES: CN(C)C(=O)c1ccc(N2CCN(c3nnc(Cc4ccccc4)c4ccccc34)CC2)nc1 [Example 54s]

IC50 [1]: 100 to 1000 nM
IC50 [2, 4]: 100 to 1000 nM
IC50 [2, 5]: < 100 nM
IC50 [3]: < 100 nM
SMILES: CN(CCCO)C(=O)c1ccc(N2CCN(c3nnc(Cc4ccccc4)c4ccccc34)CC2)nc1 [Example 54t]

IC50 [1]: 100 to 1000 nM
IC50 [2, 4]: 100 to 1000 nM
IC50 [2, 5]: < 100 nM
IC50 [3]: < 100 nM
SMILES: CC(C)(O)CNC(=O)c1ccc(N2CCN(c3nnc(Cc4ccccc4)c4ccccc34)CC2)nc1 [Example 54u]
